What was measured:
[1] = Evaluation Example 3: remaining drug amount in tape preparation after storage; assay type: physicochemical; conditions: formulated into the (meth)acrylic copolymer used in the present invention; Table 3
Procedure: The tape preparation prepared in Example 4 and Comparative Examples 8 and 9 were cut into 7×10 cm squares and were placed in a polyethylene-aluminum laminate bag and all four sides of the bag were sealed.
The tape agent was stored at 40° C. and 75% R.H. for 3 months and the remaining drug amount in the tape preparation was measured in the same manner as in Evaluation Example 1.
From the residual amount of drug measured, the drug remaining rate was calculated by the following formula: [formula]

[2] = Evaluation Example 1: drug absorption to skin from residual drug amount, HPLC; conditions: formulated into the (meth)acrylic copolymer used in the present invention; Table 1
Procedure: The tape preparation or poultice preparation was peeled off 24 hours after application, and the drug remaining on the applied site was wiped off with defatted cotton containing 1 ml of distilled water. The tape preparation or poultice preparation peeled off was stirred in 200 ml of hot ethanol for 2 hours to extract the drug, cooled to room temperature, and then brought to a constant volume of 200 ml with ethanol. To 5 ml of the solution was added 5 ml of an internal standard substance (300 μg/ml of an aqueous flulubiprofen solution was used), and after bringing to a constant volume of 50 ml with ethanol, the residual drug amount was measured by high performance liquid chromatography (hereinafter abbreviated as HPLC). The defatted cotton was stirred in 200 ml of distilled water for 2 hours to extract the drug, and to 5 ml of the solution was added 5 ml of the internal standard substance. After the mixture was brought to a constant volume of 50 ml with distilled water, the remaining drug amount was measured by HPLC.
The ointment was wiped off with defatted cotton containing ethanol (10 ml of ethanol content) 24 hours after application. […] To 5 ml of the solution was added 5 ml of the above internal standard substance, and after bringing to 50 ml with ethanol, the remaining drug amount was measured by HPLC.

[3] = keratin soluble enzyme, N-acylsarcosine, aliphatic monoalkylolamide, or organic acid added; cited from earlier work
[4] = adhesives containing polar monomers; cited from earlier work

Compound	chemical stability in the preparations (in words) [1]	percutaneous absorption of the drug (in words) [2]	enhancement of the absorption by additive substance [3]	amount formulated at which crystals are not precipitated [4]
O=C(O)Cc1ccccc1Nc1c(Cl)cccc1Cl [diclofenac sodium]	poor	poor		
CC(C(=O)O)c1cccc(Oc2ccccc2)c1 (stereo not shown) [fenoprofen]			2 -fold	
COc1ccc2c(c1)c(CC(=O)O)c(C)n2C(=O)c1ccc(Cl)cc1 [indomethacin]	poor	poor	2 -fold	
CC(C(=O)O)c1cccc(C(=O)c2ccccc2)c1 (stereo not shown) [ketoprofen, 3-Benzoylhydratropic acid]				about 40 % by weight

— patent publication US4938964A, “External dermatological composition” (Showa Denko Kabushiki Kaisha, priority 1987, dated 1990)
